Measurements: US20210205348A1, “Methods for the Treatment of Bladder Cancer” (Eisai R&D Management Co., Ltd., priority 2018, published 2021)

Key:
IFNβ = experiment: Ex vivo human PBMC stimulation assay, IFNβ protein; assay type: cell-based; conditions: 24 hours, average of five donors
Procedure: Human blood from 5 healthy donors was collected using 10.0 mL BD Vacutainer Sodium heparin tubes (cat #367874). Peripheral blood mononuclear cell (PBMC) isolation was done using SIGMA ACCUSPIN 50 ml Tubes (cat #A2055) and sigma ACCUSPIN System-HISTOPAQUE-1077 (cat #A7054) using protocol provided by manufacturer. […] PBMC were counted and finally suspended @ 1x10e6/ml in RPMI (corning cat #10-041-CV supplemented with 10% fetal bovine serum (FBS) (Gibco cat #20140.79). 1ml of cell (1×10e6) were transferred into Falcon 5 mL Round Bottom Polypropylene Test Tube (cat #352063) and stimulated with different concentrations (0, 0.1, 1, 10 uM) for 24 hours in 5% CO2 incubator at 37° C.
After 24 hours of incubation the tubes were centrifuged at 1400 rpm for 5 minutes and supernatants were harvested. Supernatant were stored in −80° C. for subsequent IFNβ measurement. IFNβ measurement was done using Human IFN-β Base Kit (Meso Scale Diagnostics cat #K151ADA) and protocol provided by manufacturer was used. IFN-beta estimation was done by reading assay plate at MESO SECTOR Imager 2400 and using MSD Discovery Workbench 4.0 program. After 24 hours IFNβ protein was analyzed.
Results shown in Table 3 reflect an average of measurements conducted using five different donors.

MBT-2 tumor cells = experiment: MBT-2 murine bladder cancer orthotopic model; assay type: in vivo, mouse
Procedure: The protocol with HCl pre-treatment procedure described by Lee, et al. was applied to establish the model. In brief, 30 μL 0.1 N HCl solution was injected into mouse bladder through a catheter and HCl solution was allowed to remain in the bladder for 15 seconds. Then the HCl solution was replaced by 30 μL 0.1N NaOH solution followed by one flushing step with 1 X PBS (pH7.4). The follow-up tumor cell implantation procedure was modified from the original literature. In brief, after a flushing step, MBT-2 tumor cells (2 ×10^6 cells in 50 μL RPMI1640 medium) were instilled into the bladder and allowed to remain for 45 minutes. At the end of this 45 minute period, the bladder was drained.
On each day of dosing BCG was diluted in NaCl 0.9% (Lavoisier, France) to reach the final concentration of 16.875 mg/mL for dosing. Any leftover dosing solution was discarded after use. For anti-PD-1 antibody, 1 x PBS (Lonza, France) was used to dilute the stock solution to prepare 1 mg/mL working solution for dosing.
From days 20-21, tumor growth in bladder was quantitated by MRI (Magnetic resonance imaging) and tumor sizes of all mice were graphed as shown in FIG. 7.

GL261 mouse glioma cells = experiment: GL261 brain orthotopic model; assay type: in vivo; conditions: 10 mg/kg intratumorally, a single time
Text: GL261 is a murine glioma cell line.

[1] = tested on: hepatocytes of Beagle dog; experiment: Hepatocyte incubation, identification of potential metabolites; assay type: in vitro ADME; conditions: 10 μmol/L
Procedure: (§1) Prior to incubations, the cryopreserved hepatocytes were thawed in a water bath at 37° C. One tube of cryopreserved hepatocytes was added to each 50-mL conical tube of cryopreserved hepatocyte recovery medium (UCRM) obtained from In Vitro ADMET Laboratories (Columbia, Md.). The cells were spun in a Beckman centrifuge (Brea, Calif.) with a GH 3.8 rotor at 740 rpm for 10 minutes at […]. The supernatant was removed and the cells were re-suspended in plating media for counting. After the cells were re-suspended in plating media, 20 μL of the re-suspension was transferred and mixed with 20 μL of AOPI staining solution. The solution was gently mixed and cells were counted using a Cellometer (Nexcelom, Lawrence, Mass.). After counting, the cells were then re-suspended at 1 or 2 million viable cells/mL in Williams' E media containing 2 mmol/L L-glutamine (pH 7.4).
(§2) The hepatocyte suspension (50 μL/well) was added into a 48-well plate. […] The plate was placed into a tissue culture incubator (5% CO2/95% air humidified atmosphere and 37° C.), and the reactions were terminated with 200 μL of stop solution consisting of 100% methanol/acetonitrile (1/1, v/v) with 2010 ng/mL furosemide and 0.2 μmol/L (R)-propranolol at 5, 30, 60, 120, 180 and 240 minutes. The mixture was centrifuged and filtered, and the supernatant was collected for analysis. The final concentrations of cryopreserved hepatocytes were 1×10^6 cells/mL.
(§3) The LC-MS/MS system was composed of a Shimadzu HPLC and an AB-SCIEX TripleTOF 5600 hybrid quadrupole and TOF mass spectrometer (Framingham, Mass.). The Shimadzu HPLC (Kyoto, Japan), consisted of a communications bus module (CBM-20A), an auto-sampler (SIL-30AC) with an attached rack changer (Rack Changer II) two pumps (LC-30AD) and a column oven (CTO-30A). The mass spectrometer was calibrated using the AB-SCIEX APCI both Negative and Positive Calibration Solutions (Framingham, Mass.). The samples obtained from incubations with hepatocytes were analyzed under both negative and positive scan modes. The basic analytical method and instrumental conditions are summarized below. Modification of the spectrometer settings was dependent on the necessity of the analyte.
(§4) Mass spectrometry data were acquired using AB-Sciex Analyst TF (Version 1.5.1; Framingham, Mass.). Chromatograms and spectra were obtained using AB-Sciex PeakView (Version 2.2.0.1; Framingham, Mass.). The comparison of relative peak areas for extracted ion chromatograms were based on ±0.0002 Da of the expected exact mass-to-charge ratio (m/z) for each analyte of interest.

[2] = tested on: hepatocytes of CD-1 mouse; experiment: as above; assay type: in vitro ADME; conditions: 10 μmol/L
Procedure: as §1, §2, §3, §4

[3] = tested on: hepatocytes of Cynomoigus monkey; experiment: as above; assay type: in vitro ADME; conditions: 10 μmol/L
Procedure: as §1, §2, §3, §4

[4] = tested on: hepatocytes of Sprague Dawley rat; experiment: as above; assay type: in vitro ADME; conditions: 10 μmol/L
Procedure: as §1, §2, §3, §4

hepatocytes of human = experiment: as above; assay type: in vitro ADME; conditions: 10 μmol/L
Procedure: as §1, §2, §3, §4

CT26 tumor cells [5] = experiment: CT26 liver metastatic model; conditions: 10 mg/kg intratumorally, a single time
CT26 tumor cells [6] = experiment: CT26 dual tumor model (mouse colon cancer model)
Procedure: For study B, treatment was started 8 days (0.6 mg/kg, and 10 mg/kg) after the tumor implantation, when the average tumors reached approximately 120 mm^3.
All the mice in the study have two subcutaneous CT26 tumors. The “treated tumor” indicates the tumor with compound direct administration, while “untreated tumor” indicates the tumor without direct compound administration. Tumor volume was followed throughout the experiment. Tumor volume is measured two times weekly after the start of treatment. Tumor burden is calculated from caliper measurements by the formula for the volume of a prolate ellipsoid (L×W^2)/2 where L and W are the respective orthogonal length and width measurements (mm),

O=P1(S)OCC2OC3C(F)C2OP(=O)(S)OCC2OC(C(F)C2O1)n1cnc2c(ncnc21)NCC=CCNc1ncnc2c1ncn23 (centres unmarked) [Compound 1a]
IFNβ (IFNβ; 0.1 μM): 21.3 ± 17.8 pg/mL
IFNβ (IFNβ; 1 μM): 227.5 ± 62.4 pg/mL
IFNβ (IFNβ; 10 μM): 540.2 ± 215.0 pg/mL
tumor volumes quantified by MRI (MBT-2 tumor cells; days 20-21, 100, 200, 400 μg/mouse IVe Q7Dx3, also 400 μg/mouse with PD1 antibody (Groups 4 to 7), vs vehicle, BCG and PD1 antibody groups): much smaller tumor volumes
survival relative to vehicle treated animals (MBT-2 tumor cells; intravesicular, Q7Dx3 (FIG. 8)): statistically significant survival benefit
activity at local sc tumors (GL261 mouse glioma cells): potent activity
curative systemic activity (treated animals) (GL261 mouse glioma cells; into the sc tumor): 5 of 8
formation of major metabolites ([1]; dog hepatocytes, LC-MS/MS): No apparent metabolite
stability in incubations with hepatocytes ([1]; dog, up to 240 minutes): stable
formation of major metabolites ([2]; mouse hepatocytes, LC-MS/MS): No apparent metabolite
stability in incubations with hepatocytes ([2]; mouse, up to 240 minutes): stable
formation of major metabolites ([3]; monkey hepatocytes, LC-MS/MS): No apparent metabolite
stability in incubations with hepatocytes ([3]; monkey, up to 240 minutes): stable
formation of major metabolites ([4]; rat hepatocytes, LC-MS/MS): No apparent metabolite
stability in incubations with hepatocytes ([4]; rat, up to 240 minutes): stable
formation of major metabolites (hepatocytes of human; human hepatocytes, LC-MS/MS): No apparent metabolite
stability in incubations with hepatocytes (hepatocytes of human; human, up to 240 minutes): stable
activity towards the local sc tumors (CT26 tumor cells [5]): potent activity
curative systemic activity (treated animals) (CT26 tumor cells [5]; into the sc tumor): 9 of 10
cure rate, treated tumors (CT26 tumor cells [6]; 0.6 mg/kg I.T. single dose): 20%
curative effects, untreated tumors (CT26 tumor cells [6]; 10 mg/kg I.T. single dose): 80%
animals cured, treated tumors (CT26 tumor cells [6]; 10 mg/kg I.T. single dose, end of study): 100%
effect on untreated tumors (CT26 tumor cells [6]; all the lower doses (0.6 to 5 mg/kg) I.T. single dose): tumor growth inhibition activity
